Experiment: in vitro
Details: human, hela cells, % viability

Structure (SMILES) | viability at 28.5 h, 10 µM
CC1CCN(Cc2ccc(-c3cn(CC(=O)NCc4ccc(Br)cc4)nn3)cc2)CC1 [CBK164709] | 93%
O=C(N/N=C/c1ccc(O)cc1)c1c[nH]c2ccccc12 [CBK262193] | 91.4%
O=C(c1csc2c1CCCC2)N1CCC(O)(c2ccccn2)CC1 [CBK282397] | 107%
O=C(NCc1ccc(F)cc1)c1ccc(Cn2ccnc2)cc1 [CBK297719] | 96.3%
Cc1cc(C)nc(NCc2cnn(C)c2C)n1 [CBK306276] | 88.1%
COc1ccc2cc(CNc3ccc(CCc4nc5ccccc5n4C)cc3)c(=O)[nH]c2c1 [CBK286159] | 103%
O=C(/C=C/c1ccco1)Nc1cc2ccccc2cc1NC(=O)/C=C/c1ccco1 [CBK261474] | 99.5%
Cc1ccc(S(=O)(=O)Nc2nnc(C3CCCCC3)s2)cc1 [CBK022722] | 101%
COCCOCC(C)NC(=O)COc1nn(C)c2nc(C)cc(C)c12 (stereo not shown) [CBK305177] | 105%
O=C1NC(=S)N/C1=C/c1cc2c(cc1Cl)OCO2 [CBK261818] | 91.5%
O=C(O)c1ccc(N2C(=O)/C(=C/c3c[nH]c4ccccc34)SC2=S)cc1 [CBK263085] | 90.4%
Brc1ccc(/C=N\c2ccc3c(c2)ncn3CCn2cnc3cc(/N=C/c4ccc(Br)cc4)ccc32)cc1 [CBK262285] | 83.9%
COc1cccc2cc(C(=O)C3=C(O)C(=O)N(CCN4CCOCC4)C3c3cccs3)oc12 (stereo not shown) [CBK269433] | 101%
Cc1ccccc1-c1nnc2n1CCCCC2 [CBK200076A] | 108%
CCC(SC1=NCCS1)C(=O)Nc1ccc(NC(C)=O)cc1 (stereo not shown) [CBK266199] | 97.4%
NS(=O)(=O)c1cccc(NC(=O)c2cccnc2)c1 [CBK024417] | 93.6%
CCCc1c(C(=O)NC2CC2)cnn1-c1ccc(Cl)cc1 [CBK006334] | 112%
O=C1NC2(CCCCC2)C(=O)N1CCS(=O)(=O)Oc1ccc(Br)cc1 [CBK261303] | 93.5%
O=C(NC(=S)Nc1ccc(N2CCN(Cc3ccccc3Cl)CC2)cc1)c1ccco1 [CBK266066] | 101%
CSc1cc(-c2ccc(F)cc2)n[nH]1 [CBK028809] | 123%
COCCn1c(SCc2ccc([N+](=O)[O-])cc2)nnc1-c1ccccc1 [CBK265937] | 89.6%
Cc1cc(=O)oc2cc(SCc3ccc(Cl)s3)ccc12 [CBK002898] | 89.5%

Structure (SMILES) | viability at 28.5 h, 10 µM
C=CCn1c(NCc2ccco2)nc2ccccc21 [CBK269751] | 87.9%
COc1cccc(Oc2nccnc2-c2cnn(C)c2)c1 [CBK107071] | 98%
COc1cc(F)ccc1-c1ccc2ccc(NC(=O)C(C)C)nc2n1 [CBK073666] | 87.1%
COc1cc(-c2nnc(CSc3nc4sc(C(=O)O)c(C)c4c(=O)[nH]3)o2)cc(OC)c1OC [CBK296973] | 91%
COCC(=O)N1CCN2C(=O)c3ccccc3NC(=O)[C@@H]2C1 [CBK289582] | 90.6%
COc1ccc(CCN(CCN2CCOCC2)C(=O)NCc2ccc3c(c2)OCO3)cc1OC [CBK160540] | 93.3%
COc1ccc(CCn2cncc2-c2cn(C)nc2C)cc1C [CBK281814] | 102%
Cc1ccc2[nH]c(=O)c(CNc3ccc4[nH]ncc4c3)cc2c1 [CBK281936] | 73%
CCc1ccc(CNC(=O)Cn2nnc(-c3ccc(C(C)N4CCC(C)CC4)cc3)n2)cc1 (stereo not shown) [CBK164199T] | 97.5%
CC(CC(=O)O)CC(=O)NC1CCN(Cc2ccccc2)CC1 (stereo not shown) [CBK287042] | 91.4%
COc1ccn2c(CCCN(C)C3Cc4ccccc4C3)nc(-c3ccc4c(c3)OCO4)c2c1 [CBK036303] | 100%
O=C(O)c1cccc(N2C(=O)C3C(C2=O)C2(c4ccccc4)C(=O)C3(c3ccccc3)C(c3ccccc3)=C2c2ccccc2)c1 (stereo not shown) [CBK262439] | 84.8%
CCCc1[nH]nc(O)c1Cc1c(F)cccc1[N+](=O)[O-] [CBK075029] | 89.5%
Cc1[nH]c2c(C(=O)O)cccc2c1-c1ccccc1 [CBK012486] | 103%
COc1cc(/C=C2/SC(=S)N(CCC(=O)N3CCN(C)CC3)C2=O)cc(OC)c1OC [CBK263656] | 88.1%
Cc1cnc2c(C(=O)N3CC(C(=O)N4CCN(c5ccccc5)CC4)C3)cnn2c1 [CBK285641] | 92.4%
Cc1nn(CC(=O)Nc2ccc3c(c2)nc(CN2CCCC2)n3C)c(=O)c2ccccc12 [CBK268465] | 97.5%
Cn1cc(C(=O)N2CCC3(C/C=C/C[C@H]4COCC[C@H]4NC(=O)CNC3=O)CC2)cn1 [CBK292069] | 103%
O=C1CN(S(=O)(=O)CCOc2ccccc2)CC(=O)N1CCc1ccccc1 [CBK261134] | 92.8%
COc1ccc(C2NCCc3c2[nH]c2ccccc32)cc1CN1CCN(c2ccc(F)cc2)CC1 (stereo not shown) [CBK264178C] | 81.7%
CC(=O)NCCSc1cccc(C(F)(F)F)n1 [CBK105299] | 112%
CCC(=O)NC(N(Cc1ccccc1)Cc1ccccc1)C(Cl)(Cl)Cl (stereo not shown) [CBK261022] | 90.9%

Structure (SMILES) | viability at 28.5 h, 10 µM
COc1ccc(C(=O)Nc2ccc(C(C)=O)cc2)cc1[N+](=O)[O-] [CBK262457] | 90.8%
Cc1nc2ccccc2c(=O)n1CC(N)=O [CBK004145] | 89.8%
Cn1cc(CNC(=O)Nc2cc(C(=O)N3CCOCC3)ccc2Cl)cn1 [CBK307080] | 83.4%
CN(C)[C@@H]1CN(Cc2ccccn2)C[C@H]1c1cn(C)c2ccccc12 [CBK284582] | 97.9%
Cc1nn(-c2ccc(F)cc2)c2c1C(c1ccc(C(=O)O)cc1)CC(=O)N2 (stereo not shown) [CBK286561] | 101%
N#Cc1ccc(C(=O)Nc2cncc(OC3CCNCC3)n2)cc1 [CBK036371T] | 90.6%
Cc1cnc2[nH]c(C3CCN(C(=O)c4cnn(C)c4C)CC3)cc2c1 [CBK284684] | 88.8%
O=C(NC1CCCC1)c1ccc2nccnc2c1 [CBK200217] | 102%
CCc1nc2ccc(C(=O)NC3=NN(c4ccccc4)C(=O)C3)cn2c1N(C)C(=O)COc1ccccc1 [CBK145873] | 91.3%
CC(NC(=O)C1CC=CCC1C(=O)O)C1CC2CCC1C2 (stereo not shown) [CBK027112] | 114%
N[C@H]1C[C@H](c2nnc(Cn3ncc(N4CCCC4)cc3=O)n2C2CC2)C1 [CBK307039] | 107%
Cc1cc(C)n(C2CCN(Cc3ccc(-n4ccnc4C)cc3)CC2)n1 [CBK281976] | 112%
Cc1sc2nc(SCC(=O)c3c[nH]c4ccccc34)nc(O)c2c1C [CBK264068] | 80.9%
CC1CCc2nc(NC(=O)Cn3cccc(C(=O)NC4CCCCC4)c3=O)sc2C1 (stereo not shown) [CBK286064] | 101%
Cc1c(C#N)c2ccc(O)c(CN(C)C)c2n1-c1ccccc1 [CBK094247C] | 98.2%
Cn1nnnc1SCCNCc1ccc2c(c1)n(C)c(=O)n2C [CBK270080C] | 99.8%
N#Cc1ccc(CNC(=O)N2CCc3ccccc3C2)cc1 [CBK155287] | 107%
CC(C)[C@H](CO)Nc1nccnc1-c1ccccc1CO [CBK037408] | 98.2%
Cc1ccc(C(=O)NCc2ccco2)c(NCc2cccnc2)n1 [CBK076383] | 102%
CN1CCN(CCC(=O)N/N=C/c2ccccn2)CC1 [CBK261501] | 114%
O=C(O)CC(CN1C(=O)c2ccccc2C1=O)C(=O)c1ccccc1 (stereo not shown) [CBK287221] | 92.4%
Cc1ccc(Cn2c(CN3CCOCC3)nc3c2c(=O)n(C)c(=O)n3C)cc1 [CBK269583] | 91.1%

Structure (SMILES) | viability at 28.5 h, 10 µM
COCC(=O)N[C@H]1C[C@H]2C(=O)Nc3ccc(-c4cccs4)cc3C(=O)N2C1 [CBK289358] | 110%
c1cnc(N2CCN(CCN3CCOCC3)CC2)c(OCCN2CCOCC2)n1 [CBK082899] | 105%
O=C(N/N=C/c1cc2c(cc1Br)OCO2)c1ccc(CN2CCOCC2)cc1 [CBK262721] | 90.1%
O=C(NC1CCCC1)c1ccncc1 [CBK143916] | 117%
Brc1ccc2nc3c(nc2c1)Nc1nonc1N3 [CBK262414] | 78.5%
CCN(CC)C(=O)c1cccc(NS(=O)(=O)c2ccc(C)c(C(=O)O)c2)c1 [CBK296665] | 111%
COc1ccc2[nH]c(SCC(=O)O)nc2c1 [CBK091620] | 91%
CCCC/C=C/c1ccc(N2CCN(CCN(C)C)CC2)nc1 [CBK036980] | 101%
CCOC(=O)N1CCN(S(=O)(=O)c2coc(C)c2C(=O)OC)CC1 [CBK057079] | 94.7%
COc1ccc(N(CC(=O)NC2CC3CCC2C3)S(=O)(=O)c2ccc(C)cc2)cc1 (stereo not shown) [CBK266574] | 108%
COc1ccc(CCNC(=O)c2cc3c([nH]c2=O)CCC3)cc1C [CBK281627] | 83.2%
Cc1nc(N2CCOCC2)[nH]c(=O)c1CCC(=O)Nc1ccc(F)cc1 [CBK304990] | 91.1%
Cc1nc2ccccc2n1C(F)(F)C(F)F [CBK022023] | 116%
Nc1ccc(-c2nc(NC(=O)c3cccs3)cnc2-c2ccc(F)cc2)cc1 [CBK037597] | 94.2%
O=C(COc1ccc(S(=O)(=O)N2CCCCC2)cc1)NCc1cccnc1 [CBK268328] | 97.6%
CC(C(=O)N1CCOCC1)N(c1cc(Cl)ccc1Cl)S(C)(=O)=O (stereo not shown) [CBK270270] | 88.8%
O=C(NNC(=O)C1CCN(S(=O)(=O)c2ccc(Br)cc2)CC1)NC12CC3CC(CC(C3)C1)C2 [CBK266907] | 94.5%
COc1ccc(Cl)cc1N1CCN(CCCCC2NC(=O)NC2=O)CC1 (stereo not shown) [CBK126448] | 89.4%
CC(C)c1csc(NC(=O)CC2CCN(S(=O)(=O)c3cccc(F)c3)CC2)n1 [CBK285902] | 83.4%
c1ccc2c(c1)OCC(c1nn3c(-c4ccncc4)nnc3s1)O2 (stereo not shown) [CBK288560] | 107%
CCCN(CC1CC1)C(=O)Cn1c([C@@H]2CCCO2)cc2cccnc21 [CBK282871] | 94.4%
O=C1Cc2cc3ccccc3cc2C2(CCN(C(=O)c3ccccc3C(=O)O)CC2)N1 [CBK047216] | 94.8%

— paper PMC12040169 (PLOS Biology, 2025)
